Laboratory results published in PMC7913927, “Leishmanicidal Activity of Betulin Derivatives in Leishmania amazonensis; Effect on Plasma and Mitochondrial Membrane Potential, and Macrophage Nitric Oxide and Superoxide Production” (Microorganisms, 2021).
Where “and” joins values, the source holds several entries; their conditions need not be identical. Equal entries are not always repeated. Where two headings read alike, the source gives them in different places.

Experiments:
[1] = tested on: L. (L.) braziliensis MHOM/BR/LTB300; design: method as in PMID 25240731; settings: cited from earlier work
[2] = tested on: LTB0016 intracellular amastigotes in J774.1 macrophages; experiment: Macrophage-amastigote model, reference strain; assay type: cell-based, Leishmania amazonensis; settings: for Growth (%) Exp1 Infección / Growth (%) Exp1 A/MØ / Growth (%) Exp1 A/100MØ / Growth (%) Exp1 %Control / Growth (%) Exp2 Infección / Growth (%) Exp2 A/MØ / Growth (%) Exp2 A/100MØ / Growth (%) Exp2 %Control / Growth (%) Exp3 Infección / Growth (%) Exp3 A/MØ / Growth (%) Exp3 A/100MØ / Growth (%) Exp3 %Control / Average A/100MØ: 72 h; for Growth (%) Exp1 Infección / Growth (%) Exp2 Infección / Growth (%) Exp3 Infección: % infected macrophages; for Growth (%) Exp1 A/MØ / Growth (%) Exp2 A/MØ / Growth (%) Exp3 A/MØ: amastigotes per infected macrophage; for Growth (%) Exp1 A/100MØ / Growth (%) Exp2 A/100MØ / Growth (%) Exp3 A/100MØ: infection index; for Growth (%) Exp1 %Control / Growth (%) Exp2 %Control / Growth (%) Exp3 %Control: infection index vs DMSO; for Average A/100MØ: average of Exp1-3
Experimental: We used a previously described methodology, with some modifications. Macrophage monolayers, grown in RMPIc medium, for 3 days, were detached from the bottom of the culture chamber, by physical treatment (low temperature and light strokes). Obtained macrophages were seeded in flat-bottom 96-well culture plates, at a density of 2 × 10^5 cells mL^−1 (40,000 macrophages/well), in a final volume of 200 µL. Plates were incubated for 2 h, and the supernatant was discarded to remove non-adhered macrophages. Medium was replaced with stationary-phase promastigotes suspended in 200 µL of RPMIc (2 × 10^6 parasites mL^−1, 400,000 parasites/well), at a macrophage: parasite ratio 1:10 [40]. The plates were incubated for 4 h. Afterwards the medium was replaced with fresh RPMIc and increasing concentrations of compounds or drugs tested were applied, in volumes of 2 µL, according to the different treatment groups. Plates were kept for 72 h, at 37 °C and 5% CO2. The medium was discarded and the wells were washed twice with PBS. Next, a Giemsa staining was performed in situ. It consisted of adding 200 µL of methanol/well, incubating for 5 min, discarding the fixative, and letting it dry at room temperature. Later, the Giemsa solution (10% in PBS w/v, 200 µL/well) was added, incubated for 10 min, and washed with PBS, allowing it to dry. Finally, the bottom of the plates was detached by percussion and the circular bottoms (wells) were fixed to slides with Permount synthetic resin, for later evaluation (Alcazar W., manuscript in preparation). Cell counting was performed with a 100× immersion objective. A minimum of 200 random macrophages were examined. The percentage of infected macrophages (% infection) and the average number of amastigotes present in infected macrophages (amastigotes) were determined. […] The infection rate represents the number of intracellular amastigotes per 100 macrophages evaluated. Additionally, the GI50 for the decrease in the infection rate was calculated. At least three independent experiments were performed. The effect of amphotericin-B (AmB) [Sigma-Aldrich, (St. Louis, MO, USA)] was included as positive control of the assay.

Compound: C=C(C)C1CCC2(C=NO)CCC3(C)C(CCC4C5(C)CCC(=NO)C(C)(C)C5CCC43C)C12 (stereo not drawn) [Compound 18]
- inhibition of parasite migration [1]: inhibited parasite migration at nano and picomolar concentrations
- SI (CC50/GI50) LTB0016 ([2]; J774.1 CC50 / intracellular amastigote GI50, Table 2): 240.45
- Growth (%) Exp1 Infección ([2]; LTB0016, 0.10 µM): 52.43%
- Growth (%) Exp1 A/MØ ([2]; LTB0016, 0.10 µM): 3.54
- Growth (%) Exp1 A/100MØ ([2]; LTB0016, 0.10 µM): 185.69
- Growth (%) Exp1 %Control ([2]; LTB0016, 0.10 µM): 70.78%
- Growth (%) Exp2 Infección ([2]; LTB0016, 0.10 µM): 57.50%
- Growth (%) Exp2 A/MØ ([2]; LTB0016, 0.10 µM): 3.36
- Growth (%) Exp2 A/100MØ ([2]; LTB0016, 0.10 µM): 193.20
- Growth (%) Exp2 %Control ([2]; LTB0016, 0.10 µM): 90.86%
- Growth (%) Exp3 Infección ([2]; LTB0016, 0.10 µM): 41.73%
- Growth (%) Exp3 A/MØ ([2]; LTB0016, 0.10 µM): 2.66
- Growth (%) Exp3 A/100MØ ([2]; LTB0016, 0.10 µM): 111.00
- Growth (%) Exp3 %Control ([2]; LTB0016, 0.10 µM): 62.52%
- Average A/100MØ ([2]; LTB0016, 0.10 µM): 163.30
- Growth (%) Exp1 Infección ([2]; LTB0016, 0.50 µM): 36.24%
- Growth (%) Exp1 A/MØ ([2]; LTB0016, 0.50 µM): 3.35
- Growth (%) Exp1 A/100MØ ([2]; LTB0016, 0.50 µM): 121.51
- Growth (%) Exp1 %Control ([2]; LTB0016, 0.50 µM): 46.32%
- Growth (%) Exp2 Infección ([2]; LTB0016, 0.50 µM): 32.38%
- Growth (%) Exp2 A/MØ ([2]; LTB0016, 0.50 µM): 2.08
- Growth (%) Exp2 A/100MØ ([2]; LTB0016, 0.50 µM): 67.35
- Growth (%) Exp2 %Control ([2]; LTB0016, 0.50 µM): 31.68%
- Growth (%) Exp3 Infección ([2]; LTB0016, 0.50 µM): 25.00%
- Growth (%) Exp3 A/MØ ([2]; LTB0016, 0.50 µM): 2.29
- Growth (%) Exp3 A/100MØ ([2]; LTB0016, 0.50 µM): 57.25
- Growth (%) Exp3 %Control ([2]; LTB0016, 0.50 µM): 32.25%
- Average A/100MØ ([2]; LTB0016, 0.50 µM): 82.04
- Growth (%) Exp1 Infección ([2]; LTB0016, 1.00 µM): 10.68%
- Growth (%) Exp1 A/MØ ([2]; LTB0016, 1.00 µM): 3.15
- Growth (%) Exp1 A/100MØ ([2]; LTB0016, 1.00 µM): 33.68
- Growth (%) Exp1 %Control ([2]; LTB0016, 1.00 µM): 12.84%
- Growth (%) Exp2 Infección ([2]; LTB0016, 1.00 µM): 24.45%
- Growth (%) Exp2 A/MØ ([2]; LTB0016, 1.00 µM): 1.29
- Growth (%) Exp2 A/100MØ ([2]; LTB0016, 1.00 µM): 31.54
- Growth (%) Exp2 %Control ([2]; LTB0016, 1.00 µM): 14.83%
- Growth (%) Exp3 Infección ([2]; LTB0016, 1.00 µM): 17.20%
- Growth (%) Exp3 A/MØ ([2]; LTB0016, 1.00 µM): 3.00
- Growth (%) Exp3 A/100MØ ([2]; LTB0016, 1.00 µM): 51.60
- Growth (%) Exp3 %Control ([2]; LTB0016, 1.00 µM): 29.06%
- Average A/100MØ ([2]; LTB0016, 1.00 µM): 38.94
- Growth (%) Exp1 Infección ([2]; LTB0016, 5.00 µM): 9.37%
- Growth (%) Exp1 A/MØ ([2]; LTB0016, 5.00 µM): 1.83
- Growth (%) Exp1 A/100MØ ([2]; LTB0016, 5.00 µM): 17.18
- Growth (%) Exp1 %Control ([2]; LTB0016, 5.00 µM): 6.55%
- Growth (%) Exp2 Infección ([2]; LTB0016, 5.00 µM): 17.07%
- Growth (%) Exp2 A/MØ ([2]; LTB0016, 5.00 µM): 1.50
- Growth (%) Exp2 A/100MØ ([2]; LTB0016, 5.00 µM): 25.61
- Growth (%) Exp2 %Control ([2]; LTB0016, 5.00 µM): 12.04%
- Growth (%) Exp3 Infección ([2]; LTB0016, 5.00 µM): 10.71%
- Growth (%) Exp3 A/MØ ([2]; LTB0016, 5.00 µM): 2.75
- Growth (%) Exp3 A/100MØ ([2]; LTB0016, 5.00 µM): 29.45
- Growth (%) Exp3 %Control ([2]; LTB0016, 5.00 µM): 16.59%
- Average A/100MØ ([2]; LTB0016, 5.00 µM): 24.08
- Growth (%) Exp1 Infección ([2]; LTB0016, 10.00 µM): 5.40%
- Growth (%) Exp1 A/MØ ([2]; LTB0016, 10.00 µM): 1.67
- Growth (%) Exp1 A/100MØ ([2]; LTB0016, 10.00 µM): 9.00
- Growth (%) Exp1 %Control ([2]; LTB0016, 10.00 µM): 3.43%
- Growth (%) Exp2 Infección ([2]; LTB0016, 10.00 µM): 11.23%
- Growth (%) Exp2 A/MØ ([2]; LTB0016, 10.00 µM): 1.20
- Growth (%) Exp2 A/100MØ ([2]; LTB0016, 10.00 µM): 13.48
- Growth (%) Exp2 %Control ([2]; LTB0016, 10.00 µM): 6.34%
- Growth (%) Exp3 Infección ([2]; LTB0016, 10.00 µM): 3.48%
- Growth (%) Exp3 A/MØ ([2]; LTB0016, 10.00 µM): 3.00
- Growth (%) Exp3 A/100MØ ([2]; LTB0016, 10.00 µM): 10.44
- Growth (%) Exp3 %Control ([2]; LTB0016, 10.00 µM): 5.88%
- Average A/100MØ ([2]; LTB0016, 10.00 µM): 10.97
- GI50 ([2]; LTB0016 intracellular amastigotes, GraphPad regression, read-out: GI50 (µM) Experiment 1 Regresion): 0.29 µM
- GI50 ([2]; LTB0016 intracellular amastigotes, GraphPad regression, read-out: GI50 (µM) Experiment 2 Regresion): 0.34 µM
- GI50 ([2]; LTB0016 intracellular amastigotes, GraphPad regression, read-out: GI50 (µM) Experiment 3 Regresion): 0.2 µM
- GI50 ([2]; intracellular amastigotes, Supplementary Materials II, read-out: GI50 (µM) LTB0016, mean of three experiments): 0.278 µM and 0.28 µM
- GI50 ([2]; summary bound for reference strain LTB0016 and patient isolates, read-out: GI50): < 1 µM
